Results published in patent US20100286147A1 (priority 2008, published 2010).

Key:
Assay type in all cases: in vivo
[1] = system: Plasmopara viticola; assay: Test A: grape downy mildew, grape seedlings sprayed after inoculation; conditions: sprayed 24 h after inoculation, visual rating, 100 = 100% disease control, 0 = no control relative to controls, test concentration not given
Source text: General protocol for preparing test suspensions for Test A-C: The test compounds were first dissolved in acetone in an amount equal to 3% of the final volume and then suspended at the desired concentration (in ppm) in acetone and purified water (50/50 mix by volume) containing 250 ppm of the surfactant Trem® 014 (polyhydric alcohol esters). The resulting test suspensions were then used in Tests A-C. Spraying a 40 ppm test suspension to the point of run-off on the test plants was equivalent to a rate of 100 g/ha.
Grape seedlings were inoculated with a spore suspension of Plasmopara viticola (the causal agent of grape downy mildew) and incubated in a saturated atmosphere at 20° C. for 24 h. After a short drying period, the test suspension was sprayed to the point of run-off on the grape seedlings, which were then moved to a growth chamber at 20° C. for 5 days, after which time the grape seedling were placed back into a saturated atmosphere at 20° C. for 24 h. Upon removal, visual disease ratings were made.
Results for Tests A-C are given in Table A. In the table, a rating of 100 indicates 100% disease control and a rating of 0 indicates no disease control (relative to the controls).

[2] = system: Phytophthora infestans; conditions: tomato seedlings, sprayed the day before inoculation; visual rating, 100 = 100% disease control, 0 = no control relative to controls; test concentration not given
[3] = system: Phytophthora infestans; conditions: tomato seedlings, sprayed 17 h after inoculation; visual rating, 100 = 100% disease control, 0 = no control relative to controls; test concentration not given

Structure (SMILES)	Percent Disease Control Test A [1]	Percent Disease Control Test B [2]	Percent Disease Control Test C [3]
Cc1cc(C(F)(F)F)nn1CC(=O)N1CCC(c2nc(C3=NOC(c4ccccc4-n4cncn4)C3)cs2)CC1 (stereo not drawn) [Compound 5]	98%	100%	99%
Cc1ccc(C)c(NC(=O)N2CCC(c3nc(C4=NOC(c5ccccc5-n5cncn5)C4)cs3)CC2)c1 (stereo not drawn) [Compound 19]	99%	100%	99%
Cc1ccc(C)c(NC(=O)N2CCC(c3nc(C4=NOC(c5ccccc5Oc5ccccc5)C4)cs3)CC2)c1 (stereo not drawn) [Compound 18]	67%	93%	58%
Cc1cc(C(F)(F)F)nn1CC(=O)N1CCC(c2nc(C3=NOC(c4ccccc4C(=O)c4ccccc4)C3)cs2)CC1 (stereo not drawn) [Compound 9]	0%	100%	17%
Cc1cc(C(F)(F)F)nn1CC(=O)N1CCC(c2nc(C3=NOC(c4ccccc4-c4ccccc4)C3)cs2)CC1 (stereo not drawn) [Compound 16]	99%	100%	99%
Cc1cc(C(F)(F)F)nn1CC(=O)N1CCC(c2nc(C3=NOC(c4ccccc4N4CCOCC4)C3)cs2)CC1 (stereo not drawn) [Compound 6]	87%	100%	99%
Cc1cc(C(F)(F)F)nn1CC(=O)N1CCC(c2nc(C3=NOC(c4ccccc4Oc4ccccc4)C3)cs2)CC1 (stereo not drawn) [Compound 3]	97%	100%	93%
Cc1cc(C(F)(F)F)nn1CC(=O)N1CCC(c2nc(C3=NOC(n4ccc(-c5ccccc5)n4)C3)cs2)CC1 (stereo not drawn) [Compound 13]	56%	100%	93%
Cc1cc(C(F)(F)F)nn1CC(=O)N1CCC(c2nc(C3=NOC(c4c(F)cccc4-n4cncn4)C3)cs2)CC1 (stereo not drawn) [Compound 11]	99%	100%	99%
Cc1cc(C(F)(F)F)nn1CC(=O)N1CCC(c2nc(C3=NOC(c4ccccc4N4CCCCC4)C3)cs2)CC1 (stereo not drawn) [Compound 4]	58%	99%	83%
Cc1cc(C(F)(F)F)nn1CC(=O)N1CCC(c2nc(C3=NOC(c4ccccc4Cc4ccccc4)C3)cs2)CC1 (stereo not drawn) [Compound 7]	73%	99%	86%
Cc1cc(C(F)(F)F)nn1CC(=O)N1CCC(c2nc(C3=NOC(c4ccccc4N4CCN(C)CC4)C3)cs2)CC1 (stereo not drawn) [Compound 10]	10%	100%	93%
Cc1cc(C(F)(F)F)nn1CC(=O)N1CCC(c2nc(C3=NOC(N4C(=O)NC(C)(c5ccccc5)C4=O)C3)cs2)CC1 (stereo not drawn) [Compound 15]	92%	100%	97%
Cc1cc(C(F)(F)F)nn1CC(=O)N1CCC(c2nc(C3=NOC(c4cccc(-n5cncn5)c4)C3)cs2)CC1 (stereo not drawn) [Compound 1, 1-[4-[4-[4,5-dihydro-5-[3-(1H-1,2,4-triazol-1-yl)phenyl]-3-isoxazolyl]-2-thiazolyl]-1-piperidinyl]-2-[5-methyl-3-(trifluoromethyl)-1H-pyrazol-1-yl]ethanone]	91%	100%	99%
COc1nn(C)c(=O)n1-c1c(C)cccc1C1CC(c2csc(C3CCN(C(=O)Cn4nc(C(F)(F)F)cc4C)CC3)n2)=NO1 (stereo not drawn) [Compound 12]	31%	100%	99%
Cc1ccc(C)c(NC(=O)N2CCC(c3nc(C4=NOC(c5ccccc5-c5ccccc5)C4)cs3)CC2)c1 (stereo not drawn) [Compound 17, 4-[4-(5-[1,1′-biphenyl]-2-yl-4,5-dihydro-3-isoxazolyl)-2-thiazolyl]-N-(2,5-dimethylphenyl)-1-piperidinecarboxamide]	98%	100%	99%
Cc1cc(C(F)(F)F)nn1CC(=O)N1CCC(c2nc(C3=NOC(c4ccc(-c5ccccc5)cc4)C3)cs2)CC1 (stereo not drawn) [Compound 2]	76%	90%	32%
Cc1cccc(C2CC(c3csc(C4CCN(C(=O)Cn5nc(C(F)(F)F)cc5C)CC4)n3)=NO2)c1-n1c(O)nn(C)c1=O (stereo not drawn) [Compound 8]	0%	100%	53%
